Each structure is given as a SMILES string. Read-outs that look alike come from different tables or passages of the source.

One data set concerns H3255 cells. Kind of data set: Cell proliferation assay. The following applies: 3 days. The class given is cell-based.
Data set [1] has as its target T1, WT EGFR (Homo sapiens, UniProt P00533). Briefly: Western blotting of WT EGFR protein in H1299 cells. The data set is classed as cell-based. To be noted: 8 h serum-free, 16 h treatment. (A western blot detects proteins with antibodies after separation by electrophoresis.)
The test system of data set [2] is p-EGFR, p-AKT. Briefly: Western blotting of downstream signaling. The class given is cell-based.
In the next data set the target is EGFR (Homo sapiens, UniProt P00533, DEL746-750). Briefly: Global label-free quantitative proteomics in HCC-827 cells. The class given is cell-based. The following applies: HCC-827 cells starved 8 h; 100 nM for 16 h.
In data set [3] the target is EGFR e19d (EGFR mutant with exon 19 deletion) (Homo sapiens, UniProt P00533, DEL746-750). Briefly: Western blotting of EGFR protein in HCC-827 cells. To be noted: for time after washout at which the EGFR protein level was recovered: 12 h degrader treatment, then washout; for maximum EGFR protein degradation: at a concentration as low as 50 nM, 16 h; for hook effect: highest concentration 10 μM (PROTAC3: 1 and 10 μM). The data set is classed as cell-based.

Data set [4] concerns the target T2, EGFR L858R (Homo sapiens, UniProt P00533, L858R). Kind of data set: Western blotting of EGFR protein in H3255 cells. The class given is cell-based. The following applies: for reversibility of EGFR degradation upon washout / maximum EGFR protein degradation / hook effect / effect on mutant EGFR protein level: H3255 cells; for reversibility of EGFR degradation upon washout: 12 h degrader treatment, then washout; for maximum EGFR protein degradation: at a concentration as low as 50 nM, 16 h; for hook effect: highest concentration 10 μM (PROTAC3: 1 and 10 μM); for effect on mutant EGFR protein level: 8 h serum-free, 16 h treatment, gefitinib at 1 μM.

Data set [5] concerns the target T2, EGFR L858R. Kind of data set: KINOMEscan competition binding assay, EGFR L858R. To be noted: EGFR L858R mutant.
In data set [6] the target is T1, WT EGFR. Kind of data set: Western blotting of WT EGFR protein in OVCAR-8 cells. The data set is classed as cell-based. The following applies: 8 h serum-free, 16 h treatment.
The nature of data set [7]: Mouse pharmacokinetic study. The following applies: mice; single IP injection 50 mg/kg.
The test system of data set [8] is p-EGFR, p-AKT. Kind of data set: Western blotting of downstream signaling. The data set is classed as cell-based. This is another data set of the same source.
Data set [9] has as its target T1, WT EGFR. To be noted: previous finding; cited from earlier work.
Another data set concerns the target EGFR WT (Homo sapiens, UniProt P00533). Kind of data set: KINOMEscan competition binding assay, EGFR WT.
The next data set in a line: in vivo. The following applies: male, Swiss Albino, mouse, ip, 50 mg/kg.
[10] abbreviates: HCC-827 cells, 12 h degrader treatment, then washout.
[11] abbreviates: HCC-827 cells, 16 h treatment, gefitinib at 1 μM.
Where [12] appears, read: 100 nM, after 8 h serum starvation.
Setting [13] is: H3255 cells, 16 h treatment, gefitinib at 1 μM.

With `COc1cc2ncnc(Nc3ccc(F)c(Cl)c3)c2cc1OCCCN1CCN(CCC(=O)NCCCCCCCCOc2cccc3c2C(=O)N(C2CCC(=O)NC2=O)C3=O)CC1` (centres unmarked) [Compound 10, 3-(4-(3-((4-((3-Chloro-4-fluorophenyl)amino)-7-methoxyquinazolin-6-yl)oxy)propyl)piperazin-1-yl)-N-(8-((2-(2,6-dioxopiperidin-3-yl)-1,3-dioxoisoindolin-4-yl)oxy)octyl)propanamide], in the data set with H3255 cells, the cell growth inhibition result is on record as “inhibited the growth of H3255 cell”; the “potency at cell growth inhibition compared with PROTAC3” value was “not as potent as compound 6 and PROTAC3”; the “potency at cell growth inhibition compared with gefitinib” value is “less potent”. Further, on WT EGFR [1], the “effect on WT EGFR protein levels” value is “did not significantly reduce the WT EGFR protein levels”. In addition, the “effect on AKT protein levels” value in the data set on p-EGFR, p-AKT [2] (HCC-827 cells) is recorded as “did not affect the AKT protein levels”. Also, in the data set with p-EGFR, p-AKT [2] (setting [10]), the “time after washout at which p-AKT was recovered” value is 48 h and the “time after washout at which p-EGFR was recovered” value amounted to 24 h. Further, the “inhibition of EGFR autophosphorylation (p-EGFR) and AKT phosphorylation (p-AKT)” value (“inhibition of EGFR autophosphorylation … (p-AKT)” below) in the data set on p-EGFR, p-AKT [2] (setting [11]) is on record as “potently inhibited”. At EGFR, the EGFR protein degraded result is “Over 75%”. In [3] (setting [12]), the “time to reduce the half-maximum of the EGFR protein level” value was determined as 3.5 h and the “treatment time to near-complete / maximum EGFR degradation” value is reported as 12 h. In [3], the “time after washout at which the EGFR protein level was recovered” value came out at 24 h, the “maximum EGFR protein degradation” value is “over 95%” and the hook effect result was “slight “hook effect””. In addition, on EGFR L858R [4], the “reversibility of EGFR degradation upon washout” value was “reversible”, the “maximum EGFR protein degradation” value is on record as “over 95%” and the hook effect entry is reported as “undetectable”. In addition, the “weaker binding affinity compared to gefitinib” value at EGFR L858R [5] is on record as 5 fold. Also, the “effect on WT EGFR protein levels” value at WT EGFR [6] is on record as “did not significantly reduce the WT EGFR protein levels”. Besides, in data set [7], the highest plasma concentration entry is on record as “approximately 500 nM”; the “time post dosing of the highest plasma concentration” value is on record as 8 h; the tolerability result is “well tolerated, and no clinical signs were observed”. In the data set on p-EGFR, p-AKT [8] (H3255 cells), the “effect on AKT protein levels” value was “did not affect the AKT protein levels”. In the data set with p-EGFR, p-AKT [8] (setting [13]), the “inhibition of EGFR autophosphorylation … (p-AKT)” value was “potently inhibited”.

Turning to `O=C1CCC(N2C(=O)c3ccccc3C2=O)C(=O)N1` (centres unmarked) [thalidomide, reference compound], on EGFR L858R [4], the “effect of 2 h pretreatment on EGFR degradation induced by compound 10” value was “blocked”.

As to `COc1cc2ncnc(Nc3ccc(F)c(Cl)c3)c2cc1OCCCCCOCCOCCC(=O)N[C@H](C(=O)N1C[C@H](O)C[C@H]1C(=O)NCc1ccc(-c2scnc2C)cc1)C(C)(C)C` [PROTAC3, reference compound], the “potency at cell growth inhibition compared with gefitinib” value with H3255 cells is given as “less potent”. Moreover, the hook effect result (in [3]; at EGFR L858R [4]) was “much more significant hook effect” throughout. Also, on WT EGFR [9], the “degradation of the WT EGFR” value is reported as “did not degrade the WT EGFR”.

Take `Cc1ncsc1-c1ccc(CNC(=O)[C@@H]2C[C@@H](O)CN2C(=O)[C@@H](NC(=O)C2(C#N)CC2)C(C)(C)C)cc1` [VH-298, reference compound]: the “effect of 2 h pretreatment on EGFR degradation induced by compound 6” value on EGFR L858R [4] was “blocked”.

Take `COc1cc2ncnc(Nc3ccc(F)c(Cl)c3)c2cc1OCCCN1CCN(CCC(=O)NCCCCCCCCOc2cccc3c2C(=O)N(C2CCC(=O)N(C)C2=O)C3=O)CC1` (centres unmarked) [Compound 28, 3-(4-(3-((4-((3-Chloro-4-fluorophenyl)amino)-7-methoxyquina-zolin-6-yl)oxy)propyl)piperazin-1-yl)-N-(8-((2-(1-methyl-2,6-dioxopiperidin-3-yl)-1,3-dioxoisoindolin-4-yl)oxy)octyl)propanamide]: the “inhibition of EGFR autophosphorylation … (p-AKT)” value is given as “lower potency” in the data set on p-EGFR, p-AKT [2] (setting [11]) and “lower potency” with p-EGFR, p-AKT [8] (setting [13]). Moreover, the “effect on mutant EGFR protein level” value on EGFR L858R [4] was “did not significantly induce the degradation of EGFR mutants”.

Consider `COc1cc2ncnc(Nc3ccc(F)c(Cl)c3)c2cc1OCCCN1CCN(C(=O)CCCCCCCCCC(=O)N[C@H](C(=O)N2C[C@@H](O)C[C@@H]2C(=O)NCc2ccc(-c3scnc3C)cc2)C(C)(C)C)CC1` [Compound 27, (2R,4S)-1-((S)-2-(11-(4-(3-((4-((3-Chloro-4-fluorophenyl)amino)-7-methoxyquinazolin-6-yl)oxy)propyl)piperazin-1-yl)-11-oxoundecanamido)-3,3-dimethylbutanoyl)-4-hydroxy-N-(4-(4-methylthiazol-5-yl)benzyl)pyrrolidine-2-carboxamide], for which the “inhibition of EGFR autophosphorylation … (p-AKT)” value in the data set with p-EGFR, p-AKT [2] is “lower potency”; in the data set with p-EGFR, p-AKT [8] it was “lower potency”. For the same compound, the “effect of 2 h pretreatment on EGFR degradation induced by compound 6” value at EGFR L858R [4] is listed as “blocked”. At EGFR L858R [4], the “effect on mutant EGFR protein level” value is recorded as “did not significantly induce the degradation of EGFR mutants”.

As for `COc1cc2ncnc(Nc3ccc(F)c(Cl)c3)c2cc1OCCCN1CCN(C(=O)CCCCCCCCCC(=O)N[C@H](C(=O)N2C[C@H](O)C[C@H]2C(=O)NCc2ccc(-c3scnc3C)cc2)C(C)(C)C)CC1` [Compound 6, (2S,4R)-1-((S)-2-(11-(4-(3-((4-((3-Chloro-4-fluorophenyl)amino)-7-methoxyquinazolin-6-yl)oxy)propyl)piperazin-1-yl)-11-oxounde-canamido)-3,3-dimethylbutanoyl)-4-hydroxy-N-(4-(4-methylthiazol-5-yl)benzyl)pyrrolidine-2-carboxamide], in the data set on H3255 cells, the cell growth inhibition entry is given as “effectively inhibited the growth of H3255 cells”, the “potency at cell growth inhibition compared with PROTAC3” value was “more potent than the previously reported PROTAC3” and the “potency at cell growth inhibition compared with gefitinib” value is on record as “less potent”. In addition, on WT EGFR [1], the “effect on WT EGFR protein levels” value was “did not significantly reduce the WT EGFR protein levels”. In addition, on EGFR WT, the “weaker binding affinity compared to gefitinib” value is listed as “approximately 10 fold”. In the data set “in vivo”, the concentration at 24 h is ~1000 nM. In addition, in the data set with p-EGFR, p-AKT [2], the “effect on AKT protein levels” value is “did not affect the AKT protein levels”; the “inhibition of EGFR autophosphorylation … (p-AKT)” value is on record as “potently inhibited”; the “time after washout at which p-AKT was recovered” value was 48 h; the “time after washout at which p-EGFR was recovered” value was 24 h. Also, the “treatment time at which robust inhibition of p-AKT was observed” value in the data set with p-EGFR, p-AKT [2] is 1 h. Further, the EGFR protein degraded result on EGFR is listed as “Over 75%”. For the same compound, the “treatment time to near-complete / maximum EGFR degradation” value in [3] (setting [12]) was “around 12 h”. Besides, in data set [3], the “time after washout at which the EGFR protein level was recovered” value is listed as 24 h, the “maximum EGFR protein degradation” value is recorded as “over 95%” and the hook effect result is on record as “slight “hook effect””. Also, on EGFR L858R [4], the “reversibility of EGFR degradation upon washout” value is “reversible”, the “maximum EGFR protein degradation” value is on record as “over 95%” and the hook effect result is “undetectable”. The “weaker binding affinity compared to gefitinib” value at EGFR L858R [5] was “approximately 10 fold”. At WT EGFR [6], the “effect on WT EGFR protein levels” value is recorded as “did not significantly reduce the WT EGFR protein levels”. Also, in [7], the “plasma concentration maintained over 8 h” value was “approximately 5 μM”; the tolerability entry is “well tolerated, and no clinical signs were observed”. Also, in the data set with p-EGFR, p-AKT [8], the “effect on AKT protein levels” value was “did not affect the AKT protein levels”; the “inhibition of EGFR autophosphorylation … (p-AKT)” value is reported as “potently inhibited”.
